Experimental data taken from patent US7888363B2, “Viral polymerase inhibitors” (Boehringer Ingelheim International GmbH, priority 2003, dated 2011).
pIC50: −log10 of the molar value.

Target: hepatitis C virus RNA dependant polymerase (NS5B) (Hepatitis C virus genotype 1b, UniProt P26663)
Assay: Inhibition of NS5B RNA dependent RNA polymerase activity
Type: biochemical
Settings: Table 4; class ranges
Procedure: A suitable assay is described in the examples.
Inhibition of NS5B RNA Dependent RNA Polymerase Activity
The compounds of the invention were tested for inhibitory activity against the hepatitis C virus RNA dependant polymerase (NS5B), according to protocol described in WO 03/010141

Sequence of hepatitis C virus RNA dependant polymerase (NS5B) (P26663 2420-3010): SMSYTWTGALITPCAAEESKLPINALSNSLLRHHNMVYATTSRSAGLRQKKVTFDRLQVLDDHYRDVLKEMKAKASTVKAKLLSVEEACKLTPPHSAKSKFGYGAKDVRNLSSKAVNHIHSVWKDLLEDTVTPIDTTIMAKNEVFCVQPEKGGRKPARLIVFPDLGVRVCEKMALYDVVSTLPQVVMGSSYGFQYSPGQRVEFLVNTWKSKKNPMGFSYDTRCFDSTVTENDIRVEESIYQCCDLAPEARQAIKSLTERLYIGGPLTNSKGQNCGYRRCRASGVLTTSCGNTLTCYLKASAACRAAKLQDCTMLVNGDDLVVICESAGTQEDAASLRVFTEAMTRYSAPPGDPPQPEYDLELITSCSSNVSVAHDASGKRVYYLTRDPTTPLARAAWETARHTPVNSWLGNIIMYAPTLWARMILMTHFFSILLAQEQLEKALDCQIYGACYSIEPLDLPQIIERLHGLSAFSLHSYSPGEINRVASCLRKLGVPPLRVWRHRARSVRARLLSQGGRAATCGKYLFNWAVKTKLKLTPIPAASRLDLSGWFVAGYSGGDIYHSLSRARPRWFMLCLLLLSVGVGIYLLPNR

Row | SMILES | pIC50
1 | O=C(O)C=Cc1ccc2nc(C3(NC(=O)c4ccc5c(C6CCCCC6)c(-c6ccoc6)n(CC(=O)N6CCOCC6)c5c4)CCC3)[nH]c2c1 [Example 4067] | > 6.70
2 | CN1CCC(NC(=O)c2ccc3c(C4CCCC4)c(-c4ccoc4)n(CC(=O)N4CCOCC4)c3c2)(c2nc3ccc(C=CC(=O)O)cc3[nH]2)C1 (centres unmarked) [Example 4068] | > 6.70
3 | CN1CCC(NC(=O)c2ccc3c(C4CCCCC4)c(-c4ccoc4)n(CC(=O)N4CCOCC4)c3c2)(c2nc3ccc(C=CC(=O)O)cc3[nH]2)C1 (centres unmarked) [Example 4069] | > 6.70
4 | O=C(O)C=Cc1ccc2nc(C3(NC(=O)c4ccc5c(C6CCCC6)c(-c6ccoc6)n(CC(=O)N6CCOCC6)c5c4)CCC3)[nH]c2c1 [Example 4070] | > 6.70
5 | C#CC1(NC(=O)c2ccc3c(C4CCCCC4)c(-c4ccoc4)n(CC(=O)N4CCOCC4)c3c2)CCCCC1 [Example 4071] | 6.00 to 6.70
6 | NC(=O)C1(NC(=O)c2ccc3c(C4CCCCC4)c(-c4ccoc4)n(CC(=O)N4CCOCC4)c3c2)CCCC1 [Example 4072] | > 6.70
7 | COC(=O)C1(NC(=O)c2ccc3c(C4CCCCC4)c(-c4ccoc4)n(CC(=O)N4CCOCC4)c3c2)CCCC1 [Example 4073] | 6.00 to 6.70
8 | O=C(NC1(C(=O)O)CCCC1)c1ccc2c(C3CCCCC3)c(-c3ccoc3)n(CC(=O)N3CCOCC3)c2c1 [Example 4074] | 6.00 to 6.70
9 | COC(=O)C(C)(C)NC(=O)c1ccc2c(C3CCCCC3)c(-c3ccoc3)n(CC(=O)N3CCOCC3)c2c1 [Example 4075] | 6.00 to 6.70
10 | COC(=O)C1(NC(=O)c2ccc3c(C4CCCCC4)c(-c4ccoc4)n(CC(=O)N4CCOCC4)c3c2)CCCCC1 [Example 4076] | 6.00 to 6.70
11 | CC(C)(NC(=O)c1ccc2c(C3CCCCC3)c(-c3ccoc3)n(CC(=O)N3CCOCC3)c2c1)C(N)=O [Example 4077] | > 6.70
12 | O=C(NC1(C(=O)O)CCCCC1)c1ccc2c(C3CCCCC3)c(-c3ccoc3)n(CC(=O)N3CCOCC3)c2c1 [Example 4078] | 6.00 to 6.70
13 | NC(=O)C1(NC(=O)c2ccc3c(C4CCCCC4)c(-c4ccoc4)n(CC(=O)N4CCOCC4)c3c2)CCCCC1 [Example 4079] | 6.00 to 6.70
14 | COC(=O)C1(NC(=O)c2ccc3c(C4CCCCC4)c(-c4ccoc4)n(CC(=O)N4CCOCC4)c3c2)COCOC1 [Example 4080] | 6.00 to 6.70
15 | CC(C)(NC(=O)c1ccc2c(C3CCCCC3)c(-c3ccoc3)n(CC(=O)N3CCC(N4CCCC4)CC3)c2c1)C(N)=O [Example 4081] | > 6.70
16 | Cn1c(C2(NC(=O)c3ccc4c(C5CCCCC5)c(-c5ccoc5)n(CC(=O)N5CCOCC5)c4c3)CCC2)nc2ccc(C=CC(=O)O)cc21 [Example 4082] | > 6.70
17 | O=C(NC1(C(=O)O)COCOC1)c1ccc2c(C3CCCCC3)c(-c3ccoc3)n(CC(=O)N3CCOCC3)c2c1 [Example 4083] | > 6.70
18 | CNC(=O)C(C)(C)NC(=O)c1ccc2c(C3CCCCC3)c(-c3ccoc3)n(CC(=O)N3CCC(N4CCCC4)CC3)c2c1 [Example 4084] | > 6.70
19 | NC(=O)C1(NC(=O)c2ccc3c(C4CCCCC4)c(-c4ccoc4)n(CC(=O)N4CCOCC4)c3c2)COCOC1 [Example 4085] | > 6.70
20 | CN(C)C(=O)C(C)(C)NC(=O)c1ccc2c(C3CCCCC3)c(-c3ccoc3)n(CC(=O)N3CCC(N4CCCC4)CC3)c2c1 [Example 4086] | > 6.70
21 | CC(C)(NC(=O)c1ccc2c(C3CCCCC3)c(-c3ccoc3)n(CC(=O)N3CCOCC3)c2c1)C(=O)O [Example 4087] | > 6.70
22 | Cc1c(C2(NC(=O)c3ccc4c(C5CCCCC5)c(-c5ccoc5)n(CC(=O)N5CCOCC5)c4c3)CCC2)oc2ccc(C(=O)O)cc12 [Example 4088] | > 6.70

Row | SMILES | pIC50
23 | CNC(=O)C1(NC(=O)c2ccc3c(C4CCCCC4)c(-c4ccoc4)n(CC(=O)N4CCC(N5CCCC5)CC4)c3c2)CCC1 [Example 4089] | > 6.70
24 | N#CC1(NC(=O)c2ccc3c(C4CCCCC4)c(-c4ccoc4)n(CC(=O)N4CCC(N5CCCC5)CC4)c3c2)CCC1 [Example 4090] | > 6.70
25 | CNC(=O)C1(NC(=O)c2ccc3c(C4CCCCC4)c(-c4ccoc4)n(CC(=O)N4CCOCC4)c3c2)CCC1 [Example 4091] | 6.00 to 6.70
26 | NC(=O)C1(NC(=O)c2ccc3c(C4CCCCC4)c(-c4ccoc4)n(CC(=O)N4CCOCC4)c3c2)CCC1 [Example 4092] | > 6.70
27 | CN(C)C(=O)C1(NC(=O)c2ccc3c(C4CCCCC4)c(-c4ccoc4)n(CC(=O)N4CCOCC4)c3c2)CCC1 [Example 4093] | > 6.70
28 | CNC(=O)C1(NC(=O)c2ccc3c(C4CCCCC4)c(-c4ccoc4)n(CC(=O)N4CCC(N5CCCC5)CC4)c3c2)CCCC1 [Example 4094] | > 6.70
29 | CN(C)C(=O)C1(NC(=O)c2ccc3c(C4CCCCC4)c(-c4ccoc4)n(CC(=O)N4CCC(N5CCCC5)CC4)c3c2)CCCC1 [Example 4095] | > 6.70
30 | CNC(=O)C1(NC(=O)c2ccc3c(C4CCCCC4)c(-c4ccoc4)n(CC(=O)N4CCOCC4)c3c2)CCCC1 [Example 4096] | > 6.70
31 | CN(C)C(=O)C1(NC(=O)c2ccc3c(C4CCCCC4)c(-c4ccoc4)n(CC(=O)N4CCOCC4)c3c2)CCCC1 [Example 4097] | > 6.70
32 | Cc1nc(C2(NC(=O)c3ccc4c(C5CCCCC5)c(-c5ccoc5)n(CC(=O)N5CCOCC5)c4c3)CCC2)cs1 [Example 4098] | 6.00 to 6.70
33 | Cc1nc(C2(NC(=O)c3ccc4c(C5CCCCC5)c(-c5ccoc5)n(CC(=O)N5CCC(N6CCCC6)CC5)c4c3)CCC2)cs1 [Example 4099] | > 6.70
34 | Cn1c(C2(NC(=O)c3ccc4c(C5CCCCC5)c(-c5ccoc5)n(CC(N)=O)c4c3)CCC2)nc2ccc(C=CC(=O)O)cc21 [Example 4100] | > 6.70
35 | O=C(NC1(c2csc(Nc3ccccc3)n2)CCC1)c1ccc2c(C3CCCCC3)c(-c3ccoc3)n(CC(=O)N3CCC(N4CCCC4)CC3)c2c1 [Example 4101] | 6.00 to 6.70
36 | CC(=O)Nc1nc(C2(NC(=O)c3ccc4c(C5CCCCC5)c(-c5ccoc5)n(CC(=O)N5CCC(N6CCCC6)CC5)c4c3)CCC2)cs1 [Example 4102] | > 6.70
37 | CNc1nc(C2(NC(=O)c3ccc4c(C5CCCCC5)c(-c5ccoc5)n(CC(=O)N5CCC(N6CCCC6)CC5)c4c3)CCC2)cs1 [Example 4103] | > 6.70
38 | O=C(NC1(c2csc(Cc3ccccc3)n2)CCC1)c1ccc2c(C3CCCCC3)c(-c3ccoc3)n(CC(=O)N3CCC(N4CCCC4)CC3)c2c1 [Example 4104] | 5.00 to 6.00
39 | CC(C)Nc1nc(C2(NC(=O)c3ccc4c(C5CCCCC5)c(-c5ccoc5)n(CC(=O)N5CCC(N6CCCC6)CC5)c4c3)CCC2)cs1 [Example 4105] | 6.00 to 6.70
40 | CCc1nc(C2(NC(=O)c3ccc4c(C5CCCCC5)c(-c5ccoc5)n(CC(=O)N5CCC(N6CCCC6)CC5)c4c3)CCC2)cs1 [Example 4107] | > 6.70
41 | CCOC(=O)c1nc(C2(NC(=O)c3ccc4c(C5CCCCC5)c(-c5ccoc5)n(CC(=O)N5CCC(N6CCCC6)CC5)c4c3)CCC2)cs1 [Example 4108] | 6.00 to 6.70
42 | CS(=O)(=O)NC(=O)c1ccc2c(C3CCCCC3)c(-c3ccoc3)n(CC(=O)N3CCC(N4CCCC4)CC3)c2c1 [Example 4109] | > 6.70
43 | O=C(NS(=O)(=O)c1ccccc1)c1ccc2c(C3CCCCC3)c(-c3ccoc3)n(CC(=O)N3CCC(N4CCCC4)CC3)c2c1 [Example 4110] | > 6.70

Same assay, conditions: Table 5; HCV NS5B polymerase

Row | SMILES | pIC50
44 | O=C(O)c1ccc2c(C3CCCCC3)c(-c3ccoc3)n(CC(=S)N3CCOCC3)c2c1 [Example 5001] | 6.00 to 6.70
45 | O=C(O)c1ccc2c(C3CCCCC3)c(-c3ccoc3)n(CCC(=O)N3CCOCC3)c2c1 [Example 5002] | 6.00 to 6.70
46 | CN(C)C(=O)CCn1c(-c2ccoc2)c(C2CCCCC2)c2ccc(C(=O)O)cc21 [Example 5003] | 5.00 to 6.00
47 | C=CCn1c(-c2ccoc2)c(C2CCCCC2)c2ccc(C(=O)O)cc21 [Example 5004] | 6.00 to 6.70
48 | C/C=C/Cn1c(-c2ccoc2)c(C2CCCCC2)c2ccc(C(=O)O)cc21 [Example 5005] | 5.00 to 6.00
49 | CC(C)=CCn1c(-c2ccoc2)c(C2CCCCC2)c2ccc(C(=O)O)cc21 [Example 5006] | 5.00 to 6.00
50 | C=C(C)Cn1c(-c2ccoc2)c(C2CCCCC2)c2ccc(C(=O)O)cc21 [Example 5007] | 6.00 to 6.70
51 | CC(C(=O)N1CCOCC1)n1c(-c2ccoc2)c(C2CCCCC2)c2ccc(C(=O)O)cc21 (centres unmarked) [Example 5008] | 5.00 to 6.00
52 | CC(C(=O)N(C)C)n1c(-c2ccoc2)c(C2CCCCC2)c2ccc(C(=O)O)cc21 (centres unmarked) [Example 5009] | 5.00 to 6.00

Same assay, conditions: Table 6; HCV NS5B polymerase

Row | SMILES | pIC50
53 | O=C(O)c1ccc2c(c1)c(C1CCCCC1)c(-c1ccoc1)n2CC(=O)N1CCOCC1 [Example 6001] | 6.00 to 6.70
54 | O=C(O)c1ccc2c(c1)c(C1CCCCC1)c(-c1ccoc1)n2CC(=O)N1CCC(N2CCCC2)CC1 [Example 6002] | > 6.70
55 | CN(C)C(=O)Cn1c(-c2ccoc2)c(C2CCCCC2)c2cc(C(=O)O)ccc21 [Example 6003] | 6.00 to 6.70

Same assay, conditions: Table 7; class ranges

Row | SMILES | pIC50
56 | COc1cc2c(C3CCCCC3)c(-c3ccoc3)n(CC(=O)N3CCOCC3)c2cc1C(=O)O [Example 7002] | 6.00 to 6.70
57 | COc1cc2c(C3CCCCC3)c(-c3ccoc3)n(CC(=O)N3CCC(N4CCCC4)CC3)c2cc1C(=O)O [Example 7003] | 6.00 to 6.70
58 | Cc1c(C(=O)O)ccc2c(C3CCCCC3)c(-c3ccoc3)n(CC(=O)N3CCC(N4CCCC4)CC3)c12 [Example 7004] | > 6.70
59 | Cc1c(C(=O)O)ccc2c(C3CCCCC3)c(-c3ccoc3)n(CC(=O)N3CCOCC3)c12 [Example 7005] | > 6.70
60 | COc1cc2c(C3CCCCC3)c(-c3ccoc3)n(CC(=O)N(C)C)c2cc1C(=O)O [Example 7006] | 6.00 to 6.70
61 | O=C(O)c1cc2c(cc1O)c(C1CCCCC1)c(-c1ccoc1)n2CC(=O)N1CCC(N2CCCC2)CC1 [Example 7007] | 5.00 to 6.00
62 | O=C(O)c1cc2c(cc1O)c(C1CCCCC1)c(-c1ccoc1)n2CC(=O)N1CCOCC1 [Example 7008] | 5.00 to 6.00
63 | CN(C)C(=O)Cn1c(-c2ccoc2)c(C2CCCCC2)c2cc(O)c(C(=O)O)cc21 [Example 7009] | 5.00 to 6.00
64 | COC(=O)c1cc2c(cc1O)c(C1CCCCC1)c(-c1ccoc1)n2CC(=O)N1CCC(N2CCCC2)CC1 [Example 7010] | 5.00 to 6.00
65 | O=C(O)COc1cc2c(C3CCCCC3)c(-c3ccoc3)n(CC(=O)N3CCOCC3)c2cc1C(=O)O [Example 7011] | 5.00 to 6.00
